Source: patent US20230111310A1, “CARBOXYLIC ACID DERIVATIVE-SUBSTITUTED IMINO ARYL COMPOUND, PREPARATION METHOD THEREFOR, HERBICIDAL COMPOSITION AND USE THEREOF” (Qingdao Kingagroot Chemical Compound Co., Ltd., priority 2020, published 2023)

Experiments:
Test in all cases: Weeding effect in post-emergence stage
Assay type in all cases: in vivo
Conditions in all cases: Dose 15 g/ha; level of fresh weight growth control rate
Digitaria sanguinalis = test system: Digitaria sanguinalis
Outline: (§1)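 Read-out is growth control rate, counted 3 weeks post-spray and averaged over three repeats. Greenhouse plants at the 2-3 leaf stage received spray-tower application at 500, 250, 125, 60, 30, 15 or 7.5 g/ha, with methyl oleate EC (1.5 liter/ha) and Tween 80 added.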

Setaria viridis = test system: Setaria viridis
Outline: as §1

Alopecurus japonicus = test system: Alopecurus japonicus
Outline: as §1

Eleusine indica = test system: Eleusine indica
Outline: as §1

Abutilon theophrasti = test system: Abutilon theophrasti
Outline: as §1

Echinochloa crusgalli = test system: Echinochloa crusgalli
Outline: as §1

CC(C)COC(=O)[C@@H](C)O/N=C/c1cc(-n2c(=O)cc(C(F)(F)F)n(C)c2=O)c(F)cc1Cl [201(R)]
Weeding effect in post-emergence stage, Digitaria sanguinalis (Digitaria sanguinalis): 5 (Level 5: growth control rate is above 85%)
Weeding effect in post-emergence stage, Setaria viridis (Setaria viridis): 5 (Level 5: growth control rate is above 85%)
Weeding effect in post-emergence stage, Alopecurus japonicus (Alopecurus japonicus): 5 (Level 5: growth control rate is above 85%)
Weeding effect in post-emergence stage, Eleusine indica (Eleusine indica): 5 (Level 5: growth control rate is above 85%)
Weeding effect in post-emergence stage, Abutilon theophrasti (Abutilon theophrasti): 5 (Level 5: growth control rate is above 85%)
Weeding effect in post-emergence stage, Echinochloa crusgalli (Echinochloa crusgalli): 5 (Level 5: growth control rate is above 85%)

C[C@@H](O/N=C/c1cc(-n2c(=O)cc(C(F)(F)F)n(C)c2=O)c(F)cc1Cl)C(=O)OC(C)(C)C [202(R)]
Weeding effect in post-emergence stage, Digitaria sanguinalis (Digitaria sanguinalis): 5 (Level 5: growth control rate is above 85%)
Weeding effect in post-emergence stage, Setaria viridis (Setaria viridis): 5 (Level 5: growth control rate is above 85%)
Weeding effect in post-emergence stage, Alopecurus japonicus (Alopecurus japonicus): 5 (Level 5: growth control rate is above 85%)
Weeding effect in post-emergence stage, Eleusine indica (Eleusine indica): 5 (Level 5: growth control rate is above 85%)
Weeding effect in post-emergence stage, Abutilon theophrasti (Abutilon theophrasti): 5 (Level 5: growth control rate is above 85%)
Weeding effect in post-emergence stage, Echinochloa crusgalli (Echinochloa crusgalli): 5 (Level 5: growth control rate is above 85%)

CCCCCOC(=O)[C@@H](C)O/N=C/c1cc(-n2c(=O)cc(C(F)(F)F)n(C)c2=O)c(F)cc1Cl [203(R)]
Weeding effect in post-emergence stage, Digitaria sanguinalis (Digitaria sanguinalis): 5 (Level 5: growth control rate is above 85%)
Weeding effect in post-emergence stage, Setaria viridis (Setaria viridis): 5 (Level 5: growth control rate is above 85%)
Weeding effect in post-emergence stage, Alopecurus japonicus (Alopecurus japonicus): 5 (Level 5: growth control rate is above 85%)
Weeding effect in post-emergence stage, Eleusine indica (Eleusine indica): 5 (Level 5: growth control rate is above 85%)
Weeding effect in post-emergence stage, Abutilon theophrasti (Abutilon theophrasti): 5 (Level 5: growth control rate is above 85%)
Weeding effect in post-emergence stage, Echinochloa crusgalli (Echinochloa crusgalli): 5 (Level 5: growth control rate is above 85%)

CCCCCCOC(=O)[C@@H](C)O/N=C/c1cc(-n2c(=O)cc(C(F)(F)F)n(C)c2=O)c(F)cc1Cl [204(R)]
Weeding effect in post-emergence stage, Digitaria sanguinalis (Digitaria sanguinalis): 5 (Level 5: growth control rate is above 85%)
Weeding effect in post-emergence stage, Setaria viridis (Setaria viridis): 5 (Level 5: growth control rate is above 85%)
Weeding effect in post-emergence stage, Alopecurus japonicus (Alopecurus japonicus): 5 (Level 5: growth control rate is above 85%)
Weeding effect in post-emergence stage, Eleusine indica (Eleusine indica): 5 (Level 5: growth control rate is above 85%)
Weeding effect in post-emergence stage, Abutilon theophrasti (Abutilon theophrasti): 5 (Level 5: growth control rate is above 85%)
Weeding effect in post-emergence stage, Echinochloa crusgalli (Echinochloa crusgalli): 5 (Level 5: growth control rate is above 85%)

CCCCCCCOC(=O)[C@@H](C)O/N=C/c1cc(-n2c(=O)cc(C(F)(F)F)n(C)c2=O)c(F)cc1Cl [205(R)]
Weeding effect in post-emergence stage, Digitaria sanguinalis (Digitaria sanguinalis): 5 (Level 5: growth control rate is above 85%)
Weeding effect in post-emergence stage, Setaria viridis (Setaria viridis): 5 (Level 5: growth control rate is above 85%)
Weeding effect in post-emergence stage, Alopecurus japonicus (Alopecurus japonicus): 5 (Level 5: growth control rate is above 85%)
Weeding effect in post-emergence stage, Eleusine indica (Eleusine indica): 5 (Level 5: growth control rate is above 85%)
Weeding effect in post-emergence stage, Abutilon theophrasti (Abutilon theophrasti): 5 (Level 5: growth control rate is above 85%)
Weeding effect in post-emergence stage, Echinochloa crusgalli (Echinochloa crusgalli): 5 (Level 5: growth control rate is above 85%)

CCCCCCCCOC(=O)[C@@H](C)O/N=C/c1cc(-n2c(=O)cc(C(F)(F)F)n(C)c2=O)c(F)cc1Cl [206(R)]
Weeding effect in post-emergence stage, Digitaria sanguinalis (Digitaria sanguinalis): 5 (Level 5: growth control rate is above 85%)
Weeding effect in post-emergence stage, Setaria viridis (Setaria viridis): 5 (Level 5: growth control rate is above 85%)
Weeding effect in post-emergence stage, Alopecurus japonicus (Alopecurus japonicus): 5 (Level 5: growth control rate is above 85%)
Weeding effect in post-emergence stage, Eleusine indica (Eleusine indica): 5 (Level 5: growth control rate is above 85%)
Weeding effect in post-emergence stage, Abutilon theophrasti (Abutilon theophrasti): 5 (Level 5: growth control rate is above 85%)
Weeding effect in post-emergence stage, Echinochloa crusgalli (Echinochloa crusgalli): 5 (Level 5: growth control rate is above 85%)

CCCCCCC(C)OC(=O)[C@@H](C)O/N=C/c1cc(-n2c(=O)cc(C(F)(F)F)n(C)c2=O)c(F)cc1Cl (stereo partly drawn) [207(R)]
Weeding effect in post-emergence stage, Digitaria sanguinalis (Digitaria sanguinalis): 5 (Level 5: growth control rate is above 85%)
Weeding effect in post-emergence stage, Setaria viridis (Setaria viridis): 5 (Level 5: growth control rate is above 85%)
Weeding effect in post-emergence stage, Alopecurus japonicus (Alopecurus japonicus): 5 (Level 5: growth control rate is above 85%)
Weeding effect in post-emergence stage, Eleusine indica (Eleusine indica): 5 (Level 5: growth control rate is above 85%)
Weeding effect in post-emergence stage, Abutilon theophrasti (Abutilon theophrasti): 5 (Level 5: growth control rate is above 85%)
Weeding effect in post-emergence stage, Echinochloa crusgalli (Echinochloa crusgalli): 5 (Level 5: growth control rate is above 85%)

C=CCCOC(=O)[C@@H](C)O/N=C/c1cc(-n2c(=O)cc(C(F)(F)F)n(C)c2=O)c(F)cc1Cl [209(R)]
Weeding effect in post-emergence stage, Digitaria sanguinalis (Digitaria sanguinalis): 5 (Level 5: growth control rate is above 85%)
Weeding effect in post-emergence stage, Setaria viridis (Setaria viridis): 5 (Level 5: growth control rate is above 85%)
Weeding effect in post-emergence stage, Alopecurus japonicus (Alopecurus japonicus): 5 (Level 5: growth control rate is above 85%)
Weeding effect in post-emergence stage, Eleusine indica (Eleusine indica): 5 (Level 5: growth control rate is above 85%)
Weeding effect in post-emergence stage, Abutilon theophrasti (Abutilon theophrasti): 5 (Level 5: growth control rate is above 85%)
Weeding effect in post-emergence stage, Echinochloa crusgalli (Echinochloa crusgalli): 5 (Level 5: growth control rate is above 85%)

C[C@@H](O/N=C/c1cc(-n2c(=O)cc(C(F)(F)F)n(C)c2=O)c(F)cc1Cl)C(=O)OC1CCCC1 [214(R)]
Weeding effect in post-emergence stage, Digitaria sanguinalis (Digitaria sanguinalis): 5 (Level 5: growth control rate is above 85%)
Weeding effect in post-emergence stage, Setaria viridis (Setaria viridis): 5 (Level 5: growth control rate is above 85%)
Weeding effect in post-emergence stage, Alopecurus japonicus (Alopecurus japonicus): 5 (Level 5: growth control rate is above 85%)
Weeding effect in post-emergence stage, Eleusine indica (Eleusine indica): 5 (Level 5: growth control rate is above 85%)
Weeding effect in post-emergence stage, Abutilon theophrasti (Abutilon theophrasti): 5 (Level 5: growth control rate is above 85%)
Weeding effect in post-emergence stage, Echinochloa crusgalli (Echinochloa crusgalli): 5 (Level 5: growth control rate is above 85%)

C[C@@H](O/N=C/c1cc(-n2c(=O)cc(C(F)(F)F)n(C)c2=O)c(F)cc1Cl)C(=O)OCC(F)F [217(R)]
Weeding effect in post-emergence stage, Digitaria sanguinalis (Digitaria sanguinalis): 5 (Level 5: growth control rate is above 85%)
Weeding effect in post-emergence stage, Setaria viridis (Setaria viridis): 5 (Level 5: growth control rate is above 85%)
Weeding effect in post-emergence stage, Alopecurus japonicus (Alopecurus japonicus): 5 (Level 5: growth control rate is above 85%)
Weeding effect in post-emergence stage, Eleusine indica (Eleusine indica): 5 (Level 5: growth control rate is above 85%)
Weeding effect in post-emergence stage, Abutilon theophrasti (Abutilon theophrasti): 5 (Level 5: growth control rate is above 85%)
Weeding effect in post-emergence stage, Echinochloa crusgalli (Echinochloa crusgalli): 5 (Level 5: growth control rate is above 85%)

C[C@@H](O/N=C/c1cc(-n2c(=O)cc(C(F)(F)F)n(C)c2=O)c(F)cc1Cl)C(=O)OCC(C)(F)F [220(R)]
Weeding effect in post-emergence stage, Digitaria sanguinalis (Digitaria sanguinalis): 5 (Level 5: growth control rate is above 85%)
Weeding effect in post-emergence stage, Setaria viridis (Setaria viridis): 5 (Level 5: growth control rate is above 85%)
Weeding effect in post-emergence stage, Alopecurus japonicus (Alopecurus japonicus): 5 (Level 5: growth control rate is above 85%)
Weeding effect in post-emergence stage, Eleusine indica (Eleusine indica): 5 (Level 5: growth control rate is above 85%)
Weeding effect in post-emergence stage, Abutilon theophrasti (Abutilon theophrasti): 5 (Level 5: growth control rate is above 85%)
Weeding effect in post-emergence stage, Echinochloa crusgalli (Echinochloa crusgalli): 5 (Level 5: growth control rate is above 85%)

C[C@@H](O/N=C/c1cc(-n2c(=O)cc(C(F)(F)F)n(C)c2=O)c(F)cc1Cl)C(=O)OCCC(F)(F)F [221(R)]
Weeding effect in post-emergence stage, Digitaria sanguinalis (Digitaria sanguinalis): 5 (Level 5: growth control rate is above 85%)
Weeding effect in post-emergence stage, Setaria viridis (Setaria viridis): 5 (Level 5: growth control rate is above 85%)
Weeding effect in post-emergence stage, Alopecurus japonicus (Alopecurus japonicus): 5 (Level 5: growth control rate is above 85%)
Weeding effect in post-emergence stage, Eleusine indica (Eleusine indica): 5 (Level 5: growth control rate is above 85%)
Weeding effect in post-emergence stage, Abutilon theophrasti (Abutilon theophrasti): 5 (Level 5: growth control rate is above 85%)
Weeding effect in post-emergence stage, Echinochloa crusgalli (Echinochloa crusgalli): 5 (Level 5: growth control rate is above 85%)

C[C@@H](O/N=C/c1cc(-n2c(=O)cc(C(F)(F)F)n(C)c2=O)c(F)cc1Cl)C(=O)OC/C=C/Cl [225(R)]
Weeding effect in post-emergence stage, Digitaria sanguinalis (Digitaria sanguinalis): 5 (Level 5: growth control rate is above 85%)
Weeding effect in post-emergence stage, Setaria viridis (Setaria viridis): 5 (Level 5: growth control rate is above 85%)
Weeding effect in post-emergence stage, Alopecurus japonicus (Alopecurus japonicus): 5 (Level 5: growth control rate is above 85%)
Weeding effect in post-emergence stage, Eleusine indica (Eleusine indica): 5 (Level 5: growth control rate is above 85%)
Weeding effect in post-emergence stage, Abutilon theophrasti (Abutilon theophrasti): 5 (Level 5: growth control rate is above 85%)
Weeding effect in post-emergence stage, Echinochloa crusgalli (Echinochloa crusgalli): 5 (Level 5: growth control rate is above 85%)
